Assay [1] concerns bovine type 2 collagen immunized rats. In words: Collagen-induced arthritis assay, IP injection protocol, ankle diameter. The assay is classed as in vivo, rat. On the procedure:
(§1) Female Lewis rats (CR) weighing between 125-200 g were immunized with bovine type 2 collagen, 2 mg/ml in a 1:1 solution of 0.01 N acetic acid and Freund's incomplete adjuvant (“FIA”). A 0.1 ml portion of the collagen solution was injected id (intradermally) at three sites on the rat. Rats were immunized with the collagen solution on days 1 and 6 of the study. […] On day 9 (study day “0”), baseline ankle diameters were measured. On days 10-15 (study days 1-6), the rats were then treated, via oral gavage, with either 1, 5, or 25 mg/kg of one of ICI-1259 or ICI-1260, prepared as described below. Ankle diameter measurements were measured on each of days 10-16.
Compounds ICI-1259, ICI-1260, ICI-1505, and ICI-1506 were administered via IP injection to treat collagent-induced arthritis in a variation of the experiments described above. Under the protocol of the IP injection experiments, animal were immunized with Bovine Type 2 collagen as previously described. […] On day 9 (study day “0”), baseline ankle diameters were measured. On days 10-12 (study days 1-3), the rats were then treated once per day, via IP injection, with one of ICI-1259, ICI-1260, ICI-1505, or ICI-1506 at 10 mg/kg. Ankle diameter in the immunized rodents was measured on each of days 10-13 as well as on day 14. […] See FIG. 18 (ICI-1259, ICI-1260, and ICI-1505) and FIG. 19 (ICI-1506).
In a separate study, using the IP injection protocol described above, ICI-1259 and 1260 were each dosed at 2 mg/kg and 0.4 mg/kg.

The target in assay [2] is T1, 5-HT2A(h) (Homo sapiens, UniProt P28223).
T1 construct: from tissue
T1 sequence (P28223 whole entry): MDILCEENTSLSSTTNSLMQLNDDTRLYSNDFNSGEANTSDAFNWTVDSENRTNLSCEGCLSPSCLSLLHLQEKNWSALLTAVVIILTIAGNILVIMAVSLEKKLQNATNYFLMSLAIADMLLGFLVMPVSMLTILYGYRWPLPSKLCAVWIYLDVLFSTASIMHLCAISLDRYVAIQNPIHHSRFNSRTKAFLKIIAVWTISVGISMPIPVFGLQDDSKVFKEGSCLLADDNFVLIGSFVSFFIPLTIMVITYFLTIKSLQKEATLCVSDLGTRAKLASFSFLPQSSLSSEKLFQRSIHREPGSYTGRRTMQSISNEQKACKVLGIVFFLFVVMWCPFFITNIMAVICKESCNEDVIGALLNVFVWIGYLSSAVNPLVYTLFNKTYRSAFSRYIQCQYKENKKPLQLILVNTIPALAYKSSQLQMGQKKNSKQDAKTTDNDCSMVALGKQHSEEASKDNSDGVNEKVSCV
Nature of the assay: 5-HT receptor binding, displacement of tritiated ligands. To be noted: at 10 μM. On the procedure: (§2) 5-HT receptor binding was measured using membrane preparations of brain regions known to be enriched with given 5-HT receptor subtype(s). The assay subsequently measured the displacement of tritiated ligands known to bind to a given 5-HT subtype.
(§3) A receptor binding assay was performed for ICI-1259 and ICI-1260 showing that at 10 μM, these compounds bind receptors 5-HT1A(h), 5-HT1B, 5-HT1D(h), 5-HT2A, 5-HT2A(h), 5-HT2B, 5-HT2C, 5-HT3,5-HT3(h), 5-HT4, 5-HT5A(h), 5-HT6, and 5-HT7.

Assay [3] deals with 5-HT2A. The description is as above. The conditions noted are these: at 10 μM. On the procedure:
as §2, §3

Assay [4] concerns the target T2, 5-HT2B (Homo sapiens, UniProt P41595).
T2 construct: from tissue
Described as above. The conditions noted are these: at 10 μM. The procedure:
as §2, §3

The target in assay [5] is T3, 5-HT1A(h) (Homo sapiens, UniProt P08908).
T3 construct: from tissue
T3 sequence (P08908 1-422): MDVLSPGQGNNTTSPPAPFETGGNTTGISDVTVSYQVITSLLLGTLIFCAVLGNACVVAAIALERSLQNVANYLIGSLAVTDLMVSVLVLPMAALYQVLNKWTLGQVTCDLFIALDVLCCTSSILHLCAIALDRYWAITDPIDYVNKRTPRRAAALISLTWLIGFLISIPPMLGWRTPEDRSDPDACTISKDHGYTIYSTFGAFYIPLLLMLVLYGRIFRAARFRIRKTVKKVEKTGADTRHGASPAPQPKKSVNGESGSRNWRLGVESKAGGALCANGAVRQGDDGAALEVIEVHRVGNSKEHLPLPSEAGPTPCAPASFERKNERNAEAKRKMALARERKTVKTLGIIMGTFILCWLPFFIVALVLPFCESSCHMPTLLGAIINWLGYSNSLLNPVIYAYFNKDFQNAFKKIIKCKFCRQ
The assay is described as above. The conditions noted are these: at 10 μM. The procedure:
as §2, §3

The subject of assay [6] is 5-HT7. The assay is described as above. The conditions noted are these: at 10 μM. On the procedure:
as §2, §3

Assay [7] deals with T4, 5-HT3(h) (Homo sapiens, UniProt P46098).
T4 construct: from tissue
T4 sequence (P46098 24-478): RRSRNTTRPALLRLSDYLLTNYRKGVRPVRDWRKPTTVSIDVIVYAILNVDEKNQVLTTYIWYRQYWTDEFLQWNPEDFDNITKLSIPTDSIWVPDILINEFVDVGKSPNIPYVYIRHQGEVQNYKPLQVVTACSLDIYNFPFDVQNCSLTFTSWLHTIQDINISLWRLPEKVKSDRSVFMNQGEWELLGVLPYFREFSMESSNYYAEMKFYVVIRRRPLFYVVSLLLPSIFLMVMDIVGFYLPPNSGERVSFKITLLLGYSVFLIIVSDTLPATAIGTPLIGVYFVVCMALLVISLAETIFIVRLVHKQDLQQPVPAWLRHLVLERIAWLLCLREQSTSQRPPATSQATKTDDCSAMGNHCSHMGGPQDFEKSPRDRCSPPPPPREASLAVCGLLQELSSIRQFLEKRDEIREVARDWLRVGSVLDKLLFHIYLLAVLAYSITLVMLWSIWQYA
The assay is described as above. To be noted: at 10 μM. On the procedure: as §2, §3

For assay [8], the system named is 5-HT6. The assay is described as above. The conditions noted are these: at 10 μM. On the procedure: as §2, §3
The target of assay [9] is T5, 5-HT5A(h) (Homo sapiens, UniProt P47898).
T5 construct: from tissue
T5 sequence (P47898 whole entry): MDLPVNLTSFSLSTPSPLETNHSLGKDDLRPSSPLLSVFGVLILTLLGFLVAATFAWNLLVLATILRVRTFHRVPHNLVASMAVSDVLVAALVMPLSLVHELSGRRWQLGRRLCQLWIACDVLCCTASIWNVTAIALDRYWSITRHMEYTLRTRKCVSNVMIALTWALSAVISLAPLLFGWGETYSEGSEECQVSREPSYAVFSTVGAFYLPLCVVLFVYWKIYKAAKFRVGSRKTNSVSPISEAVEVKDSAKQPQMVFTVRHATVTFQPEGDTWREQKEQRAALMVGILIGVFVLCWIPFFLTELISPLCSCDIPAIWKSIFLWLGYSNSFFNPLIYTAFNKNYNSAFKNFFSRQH
The assay is described as above. The conditions noted are these: at 10 μM. On the procedure:
as §2, §3

Assay [10] deals with 5-HT2C. The description is as above. The conditions noted are these: at 10 μM. On the procedure:
as §2, §3

For assay [11], the system named is 5-HT1B. Described as above. The conditions noted are these: at 10 μM. The procedure:
as §2, §3

For assay [12], the system named is 5-HT3. The assay is described as above. To be noted: at 10 μM. On the procedure:
as §2, §3

For assay [13], the system named is 5-HT4. Described as above. The conditions noted are these: at 10 μM. The procedure: as §2, §3
In assay [14] the target is T6, 5-HT1D(h) (Homo sapiens, UniProt P28221).
T6 construct: from tissue
T6 sequence (P28221 whole entry): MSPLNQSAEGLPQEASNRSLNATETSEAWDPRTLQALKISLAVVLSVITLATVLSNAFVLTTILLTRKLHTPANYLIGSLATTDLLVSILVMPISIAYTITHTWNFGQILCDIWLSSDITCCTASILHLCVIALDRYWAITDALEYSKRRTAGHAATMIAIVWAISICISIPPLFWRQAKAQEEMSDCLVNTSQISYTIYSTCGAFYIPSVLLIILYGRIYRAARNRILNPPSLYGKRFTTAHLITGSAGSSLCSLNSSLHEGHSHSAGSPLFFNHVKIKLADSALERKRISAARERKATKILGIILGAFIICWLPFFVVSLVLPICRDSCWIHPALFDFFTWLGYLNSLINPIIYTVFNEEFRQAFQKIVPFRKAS
The description is as above. The conditions noted are these: at 10 μM. The procedure: as §2, §3

The test system of assay [15] is bovine type 2 collagen immunized female Lewis rats. In words: Collagen-induced arthritis assay, oral gavage treatment, ankle diameter. The assay is classed as in vivo, rat. The procedure: as §1
Separate solutions of ICI-1259 and ICI-1260 were prepared in Dulbecco's PBS (pH 7) (“vehicle”) at 1 mg/ml. Control animals, who had not been immunized, were given vehicle without any compound. In a further control, immunized rats were given vehicle without ICI-1259 or ICI-1260. In still another control, immunized rats were treated with Enbrel™ at 10 mg/kg.

[16] abbreviates: IP injection 2 mg/kg, study days 3 and 4.
The mark [17] stands for this setting: IP injection 10 mg/kg once per day, study days 1-3, observed on study days 2-4.

T2 sequence (P41595 whole entry, species assumed): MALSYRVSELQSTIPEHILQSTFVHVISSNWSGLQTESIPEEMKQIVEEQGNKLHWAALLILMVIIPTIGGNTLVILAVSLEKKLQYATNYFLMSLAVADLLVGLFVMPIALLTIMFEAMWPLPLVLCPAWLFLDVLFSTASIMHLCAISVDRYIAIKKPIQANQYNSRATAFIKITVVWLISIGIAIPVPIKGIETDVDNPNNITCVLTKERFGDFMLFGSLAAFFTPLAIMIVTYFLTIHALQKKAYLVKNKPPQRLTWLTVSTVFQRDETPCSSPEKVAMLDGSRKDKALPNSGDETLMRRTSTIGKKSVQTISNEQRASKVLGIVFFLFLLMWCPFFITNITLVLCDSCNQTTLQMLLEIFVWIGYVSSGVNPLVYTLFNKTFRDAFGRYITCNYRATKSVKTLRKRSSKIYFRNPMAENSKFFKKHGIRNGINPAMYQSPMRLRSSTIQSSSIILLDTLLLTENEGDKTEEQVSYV

Regarding `CNCC(=O)NCCCN1CCC(CCCN2c3ccccc3Sc3ccc(C(F)(F)F)cc32)CC1` [ICI-1259, 2-(methylamino)-N-(3-(4-(3-(2-(trifluoromethyl)-10H-phenothiazin-10-yl)propyl)piperidin-1-yl)propyl)acetamide], the “reduction in ankle swelling (ankle diameter)” value is “Statistically significant results were only observed for ICI-1260 at 2 mg/kg” in assay [1] (IP injection 0.4 mg/kg), “Statistically significant results were only observed for ICI-1260 at 2 mg/kg” in [1] (setting [16]) and “statistically significant results were observed” in assay [1] (setting [17]). In addition, the receptor binding entry in assay [2], in assay [3], in assay [4], in assay [5], in assay [6] and in assay [7] was “bind” each time. The receptor binding result in assay [8], in assay [9], in assay [10], in [11], in [12] and in [13] was “bind” throughout. Moreover, the receptor binding result in assay [14] is recorded as “bind”. Besides, the “reduction in ankle swelling” value in assay [15] (oral 25 mg/kg, study days 5-7) is listed as “statistically significant reduction in ankle swelling”.
Take `NCC(=O)NCCCN1CCC(CCCN2c3ccccc3Sc3ccc(C(F)(F)F)cc32)CC1` [ICI-1260, 2-amino-N-(3-(4-(3-(2-(trifluoromethyl)-10H-phenothiazin-10-yl)propyl)piperidin-1-yl)propyl)acetamide]: the “reduction in ankle swelling (ankle diameter)” value in assay [1] (IP injection 0.4 mg/kg) is on record as “Statistically significant results were only observed for ICI-1260 at 2 mg/kg”; in assay [1] (setting [16]) it was “Statistically significant results”; in [1] (setting [17]), “statistically significant results were observed”. In addition, the receptor binding entry in assay [2], in assay [3], in assay [4], in assay [5], in assay [6] and in assay [7] was “bind” each time. For the same molecule, the receptor binding result in [8], in [9], in [10], in assay [11], in assay [12] and in assay [13] was “bind” throughout. For the same molecule, the receptor binding entry in assay [14] is reported as “bind”. Moreover, the “reduction in ankle swelling” value in assay [15] (oral 5 mg/kg, larger standard errors at each dose) was “showed a reduction in ankle swelling”; in assay [15] (oral 25 mg/kg, larger standard errors at each dose), “showed a reduction in ankle swelling”.

These data come from US20090275557A1, “Novel Composition for Treatment of Diseases Related to Activated Lymphocytes” (Immune Control, Inc., priority 2008, published 2009).
